According to US10100076B2, “Modified nucleosides for the treatment of viral infections and abnormal cellular proliferation” (priority 2000, dated 2018):
pEC50: −log10 of the molar value. Where a name gives a salt, the structure may show the parent alone. Read-outs that look alike come from different tables or passages of the source.

Legend:
[1] = tested on: CEM cells (human T-cell lymphoma); experiment: Prevention of β-D-GA-related cytotoxicity by natural nucleosides, CEM cells; type: cell-based; conditions: 50 μM natural nucleoside, 4 days, plot not shown
Procedure: (§1) The prevention of β-D-GA-related cytotoxicity in CEM cells (human T-cell lymphoma) and in the SUDHL-1 cells (human anaplastic large T-cell lymphoma cell line) was studied by adding natural nucleosides. This experiment was initiated by adding 50 μM of natural nucleosides into the media, together with increasing concentration of β-D-GA. CEM cells were seeded at 2500 cells per well and incubated for 4 days (=fast growing cell line with a doubling time of 1.3 days). SUDHL-1 cells were seeded at 10,000 cells/well, and incubated for 3 days (=slow growing cell line, doubling time 3 days). The result of this experiment is plotted in FIG. 4.

[2] = tested on: SUDHL-1 cells (human anaplastic large T-cell lymphoma cell line); experiment: Prevention of β-D-GA-related cytotoxicity by natural nucleosides, SUDHL-1 cells; type: cell-based; conditions: 50 μM natural nucleoside; SUDHL-1 cells, 3 days; FIG. 4
Procedure: as §1

[3] = tested on: Influenza A (H1N1); experiment: microbe, parasite or virus in culture; type: cell-based
[4] = tested on: Influenza A (H3N2); experiment: microbe, parasite or virus in culture; type: cell-based
[5] = tested on: Influenza B; experiment: microbe, parasite or virus in culture; type: cell-based
[6] = tested on: Respiratory Syncytial Virus A; experiment: microbe, parasite or virus in culture; type: cell-based, Respiratory Syncytial Virus strain A2; conditions: for pEC50: Initial Test, CPE Inhibition (Visual), read-out: EC50, RSV
[7] = tested on: Parainfluenza Type 3 Virus; experiment: organism not typed; type: cell-based, Parainfluenza type 3 virus strain 14702; conditions: for pEC50: Initial Test, CPE Inhibition (Visual), read-out: EC50, Parainfluenza Type 3 Virus
[8] = tested on: Influenza A (H1N1); experiment: microbe, parasite or virus in culture; type: cell-based; conditions: Initial Test, Neutral Red
[9] = tested on: Influenza A (H3N2); experiment: microbe, parasite or virus in culture; type: cell-based; conditions: Initial Test, Neutral Red
[10] = tested on: Influenza B; experiment: microbe, parasite or virus in culture; type: cell-based; conditions: Initial Test, Neutral Red
[11] = tested on: Respiratory Syncytial Virus A; experiment: microbe, parasite or virus in culture; type: cell-based; conditions: Initial Test, Neutral Red
[12] = tested on: Parainfluenza Type 3 Virus; experiment: organism not typed; type: cell-based; conditions: Initial Test, Neutral Red
[13] = tested on: HCV replicon; experiment: HCV replicon system in Huh7 cells, replicon RNA by Q-RT-PCR (HCV ΔCt, ΔΔCt); type: cell-based, hepatitis C virus; conditions: for Ave. ΔΔCt: HCV RNA ΔCt minus rRNA ΔCt; for Ave. HCV RNA ΔCt: HCV replicon in Huh7 cells; for average ΔΔCt: HCV RNA ΔCt minus rDNA ΔCt
[14] = tested on: rRNA (host RNA polymerase I product); experiment: rRNA ΔCt in Huh7 replicon cells (effect on host RNA polymerases); conditions: Table 24, average of n
In short: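 Host RNA polymerase I activity estimated by quantifying rRNA in replicon cells relative to no-drug control, expressed as ΔCt. A specificity parameter is obtained by subtracting the HCV ΔCt and rRNA ΔCt values from each other.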

[15] = tested on: rDNA (host DNA); experiment: rDNA ΔCt in Huh7 replicon cells (effect on cellular DNA polymerases); conditions: Table 25, average of N
Text: In another typical setting, a compound might reduce the host RNA polymerase activity, but not the host DNA polymerase activity. Therefore, quantification of rDNA or beta-actin DNA (or any other host DNA fragment) and comparison with DNA levels of the no-drug control is a relative measurement of the inhibitory effect of the test compound on cellular DNA polymerases.
With the availability of both the HCV ΔCt data and the rDNA ΔCt, a specificity parameter can be introduced. This parameter is obtained by subtracting both ΔCt values from each other.

[16] = tested on: Influenza A (H1N1); type: cell-based, Influenza A virus A/Beijing/262/95
[17] = tested on: Influenza A (H3N2); type: cell-based, Influenza A virus A/Sydney/05/97
[18] = tested on: Influenza B; type: cell-based, Influenza B virus B/Beijing/184/93
[19] = Initial Test, CPE Inhibition (Visual)
[20] = Confirmatory Test, Visual (EC50)

Row | SMILES | pEC50 [3, 19] | pEC50 [4, 19] | pEC50 [5, 19] | pEC50 [6] | pEC50 [7] | pEC50 [8] | pEC50 [9] | pEC50 [10] | pEC50 [11] | pEC50 [12] | Ave. ΔΔCt ([13]; Table 24) | Ave. HCV RNA ΔCt ([13]; Table 24, average of n) | average ΔΔCt ([13]; Table 25) | Ave. HCV RNA ΔCt ([13]; Table 25, average of N) | Ave. rRNA ΔCt [14] | Ave. rDNA ΔCt [15] | also measured
1 | Nc1ccn([C@@H]2O[C@H](CO)C[C@H]2O)c(=O)n1 (as salt: hemisulfate) |  |  |  |  |  |  |  |  |  |  |  |  |  |  |  |  | melting point: 202 to 203 °C (dec.)
2 | O=c1[nH]c(=O)n([C@@H]2O[C@H](CO)[C@@H](O)[C@H]2O)c2nn[nH]c12 (hydrate or solvate) |  |  |  |  |  |  |  |  |  |  |  |  |  |  |  |  | melting point: 164 to 166 °C (dec.)
3 | Nc1ccn([C@@H]2O[C@H](CO)[C@@H](O)[C@H]2O)c(=O)n1 [cytidine] |  |  |  |  |  |  |  |  |  |  |  |  |  |  |  |  | prevention of β-D-GA toxicity, in words [1]: markedly prevent β-D-GA toxicity; prevention of β-D-GA toxicity, in words [2]: markedly prevent β-D-GA toxicity
4 | O=c1ccn([C@@H]2O[C@H](CO)[C@@H](O)[C@H]2O)c(=O)[nH]1 [uridine] |  |  |  |  |  |  |  |  |  |  |  |  |  |  |  |  | prevention of β-D-GA toxicity, in words [1]: markedly prevent β-D-GA toxicity; prevention of β-D-GA toxicity, in words [2]: markedly prevent β-D-GA toxicity
5 | Nc1ccn([C@@H]2O[C@H](CO)C[C@H]2O)c(=O)n1 [β-D-AJ] | 3.82 | < 3.30 | 3.82 | < 3.30 | < 3.30 | 3.82 | < 3.30 | 3.82 | < 3.30 | < 3.30 | 1.18 | 2.92 | 2.33 | 2.75 | 1.74 | 0.43 | 
6 | O=c1nc(NO)ccn1[C@@H]1O[C@H](CO)[C@@H](O)[C@H]1O [β-D-BS] | 5.82 | 5.82 | 6.30 | 6.30 | < 3.30 | 5.92 | 5.40 | 5.92 | > 6.30 | 4.40 | 3.83 | 4.89 | 4.45 | 4.81 | 1.05 | 0.38 | pEC50 [3, 20]: 5.89; antiviral activity against influenza A and B, in words ([3]; summary of Table 23, influenza A and B): potent in vitro antiviral capacities against influenza A and B; pEC50 [4, 20]: 6.30; pEC50 [5, 20]: 6.22; antiviral activity against RSV, in words ([6]; summary of Table 23): some activities against RSV; antiviral activity against Parainfluenza type 3 virus, in words ([7]; summary of Table 23): no activity against Parainfluenza type 3 virus; EC90 (virus yield reduction) [16]: 0.4 µM; EC90 (virus yield reduction) [17]: 0.32 µM; EC90 (μM), virus yield reduction [18]: 0.6 µM
7 | OC[C@H]1O[C@@H](n2cnc3c(Cl)ncnc32)[C@H](O)[C@@H]1O [β-D-DJ] | < 3.30 | < 3.30 | 4.30 | 3.30 | < 3.30 | < 3.30 | < 3.30 | 3.96 | < 3.30 | 3.30 | −0.11 | 3.51 | 2.14 | 4.84 | 3.62 | 2.70 | 
